From US9169260B2 (MERCK SHARP & DOHME CORP., priority 2011, dated 2015)
pIC50: −log10 of the molar value.

Target: GST tagged IRAK-4 (Homo sapiens (Human), UniProt Q9NWZ3)
Assay: IRAK-4 Kinase Assay (IMAP fluorescence polarization)
Type: biochemical
Conditions: 100 μM ATP, 30 minutes at 25° C.; for IC50: μM
Protocol: The kinase activity of IRAK-4 is determined by its ability to catalyze the phosphorylation of a fluorescent polypeptide substrate. The extent of phosphorylation is measured using the IMAP technology (Molecular Devices) where the phosphorylated fluorescent substrate binds to the large M(III)-based nanoparticles which reduces the rotational speed of the substrate and thus increases its fluorescent polarization (FP).
20 μl reaction mixture contains 10 mM TriHCl, pH 7.2, 0.5 nM GST tagged IRAK-4 (SignalChem), 100 nM fluorescent peptide substrate (RP7030, Molecular Devices), 100 μM ATP, 1 mM DTT, 1 mM MgCl2, and 0.01% Tween 20. The reaction is initiated by the addition of ATP. After incubation for 30 minutes at 25° C., 60 μl of Progressive IMAP Reagent (Molecular Devices) is added to stop the reaction. Change in RP7030's FP is determined by a FP reader (Analyst HT, LH, BioSystems).

GST tagged IRAK-4, sequence (Q9NWZ3 whole entry): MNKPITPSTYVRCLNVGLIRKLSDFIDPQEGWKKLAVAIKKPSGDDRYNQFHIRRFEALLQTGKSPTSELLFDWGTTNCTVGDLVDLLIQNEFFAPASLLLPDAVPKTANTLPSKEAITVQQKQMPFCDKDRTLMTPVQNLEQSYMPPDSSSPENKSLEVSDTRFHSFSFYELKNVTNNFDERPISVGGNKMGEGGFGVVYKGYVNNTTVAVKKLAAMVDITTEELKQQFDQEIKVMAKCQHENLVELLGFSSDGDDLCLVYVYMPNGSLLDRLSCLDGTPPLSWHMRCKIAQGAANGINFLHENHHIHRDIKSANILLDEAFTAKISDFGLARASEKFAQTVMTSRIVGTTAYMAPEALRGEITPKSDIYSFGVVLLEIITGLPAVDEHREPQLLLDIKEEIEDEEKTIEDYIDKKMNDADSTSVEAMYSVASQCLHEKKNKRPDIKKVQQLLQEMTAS

Compound	pIC50	IC50 [µM]
CS(=O)(=O)N1CCC(c2cc(NC(=O)c3cnn4cccnc34)n(-c3ccccn3)n2)CC1 [Example 173, N-(3-(1-(methylsulfonyl)piperidin-4-yl)-1-(pyridin-2-yl)-1H-pyrazol-5-yl)pyrazolo[1,5-a]pyrimidine-3-carboxamide]	–	< 1
CCCC(C)N1CCC(c2cc(NC(=O)c3cnn4cccnc34)n(-c3ccc(C)cc3)n2)CC1 (centres unmarked) [Example 210]	> 7.00	–
Cc1ccc(-n2nc(C3CCCN(Cc4cscn4)C3)cc2NC(=O)c2cnn3cccnc23)cc1 (centres unmarked) [Example 288, N-{1-(4-methylphenyl)-3-[1-(1,3-thiazol-4-ylmethyl)piperidin-3-yl]-1H-pyrazol-5-yl}pyrazolo[1,5-a]pyrimidine-3-carboxamide]	–	< 1
COc1ccc(-n2nc(C3CCN(S(=O)(=O)C4CC4)CC3)cc2NC(=O)c2cnn3cccnc23)c(F)c1 [Example 63, N-(3-(1-(cyclopropylsulfonyl)piperidin-4-yl)-1-(2-fluoro-4-methoxyphenyl)-1H-pyrazol-5-yl)pyrazolo[1,5-a]pyrimidine-3-carboxamide]	> 7.00	–
Cc1ccc(-n2nc(-c3ccc(S(=O)(=O)N4CCN(C)CC4)cc3)cc2NC(=O)c2cnn3cccnc23)cc1 [Example 342, N-[1-(4-methylphenyl)-3-{4-[(4-methylpiperazin-1-yl)sulfonyl]phenyl}-1H-pyrazol-5-yl]pyrazolo[1,5-a]pyrimidine-3-carboxamide]	> 7.00	–
Cc1ccc(-n2nc(C3CCCNC3)cc2NC(=O)c2cnn3cccnc23)cc1 (centres unmarked) [Example 42, N-(3-(piperidin-3-yl)-1-(p-tolyl)-1H-pyrazol-5-yl)pyrazolo[1,5-a]pyrimidine-3-carboxamide]	–	< 1
Cc1ccc(-n2nc(-c3ccncc3)cc2NC(=O)c2cnn3cccnc23)cc1F [Example 128, N-(1-(3-fluoro-4-methylphenyl)-3-(pyridin-4-yl)-1H-pyrazol-5-yl)pyrazolo[1,5-a]pyrimidine-3-carboxamide]	–	< 1
Cc1ccc(-n2nc(C3CCNCC3)cc2NC(=O)c2cnn3cccnc23)c(Cl)c1 [Example 65, N-(1-(2-chloro-4-methylphenyl)-3-(piperidin-4-yl)-1H-pyrazol-5-yl)pyrazolo[1,5-a]pyrimidine-3-carboxamide]	–	< 1
Cc1ccc(-n2nc(-c3ccc(S(=O)(=O)C(C)C)cc3)cc2NC(=O)c2cnn3cccnc23)cc1 [Example 341, N-[3-{4-[(1-methylethyl)sulfonyl]phenyl}-1-(4-methylphenyl)-1H-pyrazol-5-yl]pyrazolo[1,5-a]pyrimidine-3-carboxamide]	–	< 1
Cc1ccc(-n2nc(C3COCCN3)cc2NC(=O)c2cnn3cccnc23)cc1 (centres unmarked) [Example 79, N-(3-(morpholin-3-yl)-1-(p-tolyl)-1H-pyrazol-5-yl)pyrazolo[1,5-a]pyrimidine-3-carboxamide]	–	< 1
Cc1ccc(-n2nc(C3CCN(S(=O)(=O)c4c(Cl)cccc4Cl)CC3)cc2NC(=O)c2cnn3cccnc23)cc1 [Example 390, N-[3-{1-[(2,6-dichlorophenyl)sulfonyl]piperidin-4-yl}-1-(4-methylphenyl)-1H-pyrazol-5-yl]pyrazolo[1,5-a]pyrimidine-3-carboxamide]	–	> 1
CNS(=O)(=O)c1ccc(-c2cc(NC(=O)c3cnn4cccnc34)n(-c3ccc(C4CC4)cn3)n2)cc1 [Example 151, N-(1-(5-cyclopropylpyridin-2-yl)-3-(4-(N-methylsulfamoyl)phenyl)-1H-pyrazol-5-yl)pyrazolo[1,5-a]pyrimidine-3-carboxamide]	> 7.00	–

Results, then the molecule that gave them:

pIC50	IC50 [µM]	Compound
> 7.00	–	CC(C)N1CCC(c2cc(NC(=O)c3cnn4cccnc34)n(-c3ccc(C4CC4)cc3F)n2)CC1 [Example 74, N-(1-(4-cyclopropyl-2-fluorophenyl)-3-(1-isopropylpiperidin-4-yl)-1H-pyrazol-5-yl)pyrazolo[1,5-a]pyrimidine-3-carboxamide]
> 7.00	–	CNS(=O)(=O)c1ccc(-c2cc(NC(=O)c3cnn4cc(Cl)cnc34)n(-c3ccc(C)cn3)n2)cc1 [Example 196, 6-chloro-N-(1-(5-methylpyridin-2-yl)-3-(4-(N-methylsulfamoyl)phenyl)-1H-pyrazol-5-yl)pyrazolo[1,5-a]pyrimidine-3-carboxamide]
> 7.00	–	Cc1ccc(-n2nc(C3CCN(S(=O)(=O)Cc4ccccn4)CC3)cc2NC(=O)c2cnn3cccnc23)cc1 [Example 397, N-[1-(4-methylphenyl)-3-{1-[(pyridin-2-ylmethyl)sulfonyl]piperidin-4-yl}-1H-pyrazol-5-yl]pyrazolo[1,5-a]pyrimidine-3-carboxamide]
> 7.00	–	Cc1ccc(-n2nc(C3CCN(C4CCOCC4)CC3)cc2NC(=O)c2cnn3cc(Br)cnc23)cc1 [Example 110, 6-bromo-N-(3-(1-(tetrahydro-2H-pyran-4-yl)piperidin-4-yl)-1-(p-tolyl)-1H-pyrazol-5-yl)pyrazolo[1,5-a]pyrimidine-3-carboxamide]
–	< 1	Cc1ccc(-n2nc(C3CCCN(Cc4cncs4)C3)cc2NC(=O)c2cnn3cccnc23)cc1 (centres unmarked) [Example 284, N-{1-(4-methylphenyl)-3-[1-(1,3-thiazol-5-ylmethyl)piperidin-3-yl]-1H-pyrazol-5-yl}pyrazolo[1,5-a]pyrimidine-3-carboxamide]
–	< 1	Cc1ccc(-n2nc(-c3ccnc(CO)c3)cc2NC(=O)c2cnn3cccnc23)cc1 [Example 329, N-{3-[2-(hydroxymethyl)pyridin-4-yl]-1-(4-methylphenyl)-1H-pyrazol-5-yl}pyrazolo[1,5-a]pyrimidine-3-carboxamide]
–	< 1	Cc1ccc(-n2nc(C3CCN(S(=O)(=O)c4ccc(F)cc4)CC3)cc2NC(=O)c2cnn3cccnc23)cc1 [Example 366, N-[3-{1[(4-fluorophenyl)sulfonyl]piperidin-4-yl}-1-(4-methylphenyl)-1H-pyrazol-5-yl]pyrazolo[1,5-a]pyrimidine-3-carboxamide]
–	> 1	Cc1ccc(-n2nc(C3CCN(S(=O)(=O)c4ccc(C(F)(F)F)cc4)CC3)cc2NC(=O)c2cnn3cccnc23)cc1 [Example 381, N-[1-(4-methylphenyl)-3-(1-{[4-(trifluoromethyl)phenyl]sulfonyl}piperidin-4-yl)-1H-pyrazol-5-yl]pyrazolo[1,5-a]pyrimidine-3-carboxamide]
–	< 1	Cc1ccc(-n2nc(C3CCC(C(N)=O)CC3)cc2NC(=O)c2cnn3cccnc23)cc1 (centres unmarked) [Example 95, N-(3-(4-carbamoylcyclohexyl)-1-(p-tolyl)-1H-pyrazol-5-yl)pyrazolo[1,5-a]pyrimidine-3-carboxamide]
7.00	–	Cc1ccc(-n2nc(-c3ccc(S(C)(=O)=O)cc3C(F)(F)F)cc2NC(=O)c2cnn3cccnc23)cc1 [Example 338, N-{1-(4-methylphenyl)-3-[4-(methylsulfonyl)-2-(trifluoromethyl)phenyl]-1H-pyrazol-5-yl}pyrazolo[1,5-a]pyrimidine-3-carboxamide]
–	< 1	COCCOC(=O)N1CC(N2CCC(c3cc(NC(=O)c4cnn5cccnc45)n(-c4ccc(C)cc4)n3)CC2)C1 [Example 242, 2-methoxyethyl 3-(4-{1-(4-methylphenyl)-5-[(pyrazolo[1,5-a]pyrimidin-3-ylcarbonyl)amino]-1H-pyrazol-3-yl}piperidin-1-yl)azetidine-1-carboxylate]
